Assay results reported in US20100261662A1, “UTILIZATION OF MURAL THROMBUS FOR LOCAL DRUG DELIVERY INTO VASCULAR TISSUE” (ENDOLOGIX, INC., priority 2009, published 2010).

Assays:
[1] = test system: collagen contained within the vascular tissue; assay: Short-term application of catechin to vascular tissue; details: short-term (approximately 10-30 minute) application
Excerpt: Catechin can be delivered in solution form into the mural thrombus. This delivery method pathway can be used, without limitation, when a short-acting application of a high-concentration of catechin is desired. […] In some embodiments, the concentration of the agent can be in the range from approximately 0.01% to approximately 20%, or between approximately 2.0% and approximately 10.0%, or to or from any values within these ranges.

skin collagen = details: rats treated with catechin; cited from earlier work

Substance: catechin
- stabilization of collagen in vascular tissue [1]: can stabilize the collagen
- stability of skin collagen against enzymatic degradation (skin collagen): stable against enzymatic degradation
